The supplement of paper PMC10307832

Experiments:
Experiment in all cases: relative viability (nuclei count vs DMSO), 5 days (fraction); higher = more cells survive
[1] = compound: CN(C/C=C/C1=CC=C(C=C1)Cl)CC2=CC=CC=C2N(CCO)S(=O)(=O)C3=CC=C(C=C3)OC [KN-93] + CC(=O)c1c(C)c2cnc(Nc3ccc(N4CCNCC4)cn3)nc2n(C2CCCC2)c1=O [Palbociclib] (partner 0.5 µM)
Outline: (§1)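 Relative viability divides the nuclei count in treated wells by that in vehicle wells. Lung cancer cell lines were seeded in 1536-well plates, dosed by pin tool the next day, and fixed and stained after 5 days in one step with final 0.05% Triton X-100, 1% formaldehyde and 1 ug/ml Hoechst. Dosing was a single drug or a fixed anchor-drug dose plus five library-drug doses (not always all listed) in √10 steps, and values are medians of duplicate plates imaged at 4×.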

[2] = compound: CN(C/C=C/C1=CC=C(C=C1)Cl)CC2=CC=CC=C2N(CCO)S(=O)(=O)C3=CC=C(C=C3)OC [KN-93] + CC(C)C[C@H](NC(=O)[C@H](Cc1ccccc1)NC(=O)c1cnccn1)B(O)O [Bortezomib] (partner 0.002 µM)
Outline: as §1

[3] = compound: CN(C/C=C/C1=CC=C(C=C1)Cl)CC2=CC=CC=C2N(CCO)S(=O)(=O)C3=CC=C(C=C3)OC [KN-93] + COc1cccc2cc(-c3nc([C@H]4CC[C@H](C(=O)O)CC4)n4ncnc(N)c34)[nH]c12 [OSI-027] (partner 0.5 µM)
Outline: as §1

[4] = compound: CN(C/C=C/C1=CC=C(C=C1)Cl)CC2=CC=CC=C2N(CCO)S(=O)(=O)C3=CC=C(C=C3)OC [KN-93] + Cc1cc(Nc2cc(N3CCN(C)CC3)nc(Sc3ccc(NC(=O)C4CC4)cc3)n2)n[nH]1 [Tozasertib] (partner 0.1 µM)
Outline: as §1

[5] = compound: CN(C/C=C/C1=CC=C(C=C1)Cl)CC2=CC=CC=C2N(CCO)S(=O)(=O)C3=CC=C(C=C3)OC [KN-93] + Nc1nc2[nH]cc(CCc3ccc(C(=O)N[C@@H](CCC(=O)O)C(=O)O)cc3)c2c(=O)[nH]1 [Pemetrexed] (partner 0.2 µM)
Outline: as §1

Cell Line	relative viability ([1]; first compound 0.08 µM)	relative viability ([1]; first compound 0.253 µM)	relative viability ([1]; first compound 2.53 µM)	relative viability ([1]; first compound 8 µM)	relative viability ([2]; first compound 0.08 µM)	relative viability ([2]; first compound 0.253 µM)	relative viability ([2]; first compound 2.53 µM)	relative viability ([2]; first compound 8 µM)	relative viability ([3]; first compound 0.08 µM)	relative viability ([3]; first compound 0.253 µM)	relative viability ([3]; first compound 2.53 µM)	relative viability ([3]; first compound 8 µM)	relative viability ([4]; first compound 0.08 µM)	relative viability ([4]; first compound 0.253 µM)	relative viability ([4]; first compound 2.53 µM)	relative viability ([4]; first compound 8 µM)	relative viability ([5]; first compound 0.08 µM)	relative viability ([5]; first compound 0.253 µM)	relative viability ([5]; first compound 2.53 µM)	relative viability ([5]; first compound 8 µM)
COR-L23	0.272	0.289	0.303	0.24	0.653	1.5	1.21	0.573	0.748	1.02	0.798	0.353	0.185	0.205	0.177	0.156	0.196	0.205	0.204	0.2
LXF-289	0.512	0.672	0.628	0.552	0.853	1.12	1.12	0.833	0.875	0.967	0.873	0.634	0.201	0.25	0.215	0.147	0.925	0.926	0.977	0.684
RERF-LC-KJ	1.03	1	1.16	0.8	1.07	1.2	1.09	0.928	0.557	0.509	0.588	0.353	0.448	0.477	0.405	0.271	0.504	0.485	0.46	0.461
NCI-H2342	0.538	0.54	0.565	0.507	–	–	–	–	0.587	0.62	0.625	0.582	0.471	0.492	0.556	0.421	0.735	0.679	0.859	0.717
NCI-H727	0.606	–	0.67	0.655	0.66	0.853	0.785	0.391	0.644	0.512	0.486	0.337	0.689	0.658	0.465	0.447	–	–	–	–
SW 900	0.539	0.592	0.509	0.471	–	–	–	–	0.571	0.438	0.624	0.411	0.529	0.544	0.598	0.368	0.522	0.517	0.491	0.47
NCI-H522	1.1	1.31	1	0.81	–	–	–	–	0.824	0.746	0.801	0.558	0.551	0.536	0.566	0.511	1.02	0.987	1.29	0.779
NCI-H1792	0.401	0.649	0.796	0.605	–	0.923	1.04	0.781	0.527	0.651	0.768	0.664	–	–	–	–	0.605	0.909	0.971	0.513
SK-MES-1	0.367	0.301	0.354	0.284	–	–	–	–	0.517	0.547	0.605	0.415	0.919	0.98	1.04	0.4	1.03	0.945	1.05	0.806
